Ki data for 15 compounds are collected here from ChEMBL document CHEMBL5725366, “Oxindole compounds carrying a nitrogen-bound spiro substituent and use thereof for treating vasopressin-related diseases” (2017).

For this experiment, the target named is T1, Vasopressin V1b receptor (Homo sapiens, UniProt P47901).
T1 sequence (P47901 whole entry): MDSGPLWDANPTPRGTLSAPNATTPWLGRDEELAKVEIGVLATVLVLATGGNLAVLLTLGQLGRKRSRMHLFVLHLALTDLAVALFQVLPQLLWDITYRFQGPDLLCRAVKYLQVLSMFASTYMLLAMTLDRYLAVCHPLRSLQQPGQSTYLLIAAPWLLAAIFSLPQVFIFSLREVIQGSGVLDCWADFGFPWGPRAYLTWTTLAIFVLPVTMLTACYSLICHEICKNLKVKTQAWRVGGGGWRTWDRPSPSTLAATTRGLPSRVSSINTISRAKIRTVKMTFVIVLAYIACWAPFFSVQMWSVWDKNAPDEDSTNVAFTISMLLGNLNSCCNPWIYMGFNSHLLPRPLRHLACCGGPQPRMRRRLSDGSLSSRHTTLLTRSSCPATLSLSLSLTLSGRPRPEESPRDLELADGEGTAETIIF
Put plainly: The nonspecific binding was determined with 1 μM AVP (Fluka 94836). All determinations were carried out as duplicate determinations. […] The liquid scintillation measurement took place in a Microbeta TriLux 12 (Wallac).

Take `COc1ccc(S(=O)(=O)N2C(=O)C(c3ccc(F)cc3OC)(N3CC4(CN(C5CCN(C)CC5)C4)C3)C3C=C(C#N)C=CC32)nc1` (stereo not given): the Ki entry is “in the range around 5.5 nM”.

For `CCOc1ccc(OC)cc1[C@]1(N2CC3(CN(C4CCN(C)CC4)C3)C2)C(=O)N(S(=O)(=O)c2ccccn2)C2C=CC(C#N)=CC21` (stereo not given in full), the Ki result was “in the range around 5.5 nM”. Turning to `CCOc1ccc(OC)c(C2(N3CC4(CN(C5CCN(C)CC5)C4)C3)C(=O)N(S(=O)(=O)c3ccc(OC)cc3)C3C=CC(C#N)=CC32)c1` (stereo not given), the inhibition constant Ki entry is “in the range around 5.5 nM”. In the case of `CCOc1ccc(OC)cc1[C@]1(N2CC3(CN(C4CCN(C)CC4)C3)C2)C(=O)N(S(=O)(=O)c2ccc(OC)nc2)C2C=CC(C#N)=CC21` (stereo not given in full), the inhibitory constant (Ki) entry is “in the range around 5.5 nM”. The entry for `COc1ccc(S(=O)(=O)N2C(=O)C(c3ccccc3OC)(N3CC4(CN(N5CCN(C)CC5)C4)C3)C3C=C(C#N)C=CC32)nc1` (racemic) is “in the range around 5.5 nM”; for `COc1ccc(S(=O)(=O)N2C(=O)C(c3ccccc3OC)(N3CC4(CN(C5CCN(C)CC5)C4)C3)C3C=C(C#N)C=CC32)nc1` (racemic) it is “in the range around 5.5 nM”. The same measure for `CCOc1ccc(OC)cc1C1(N2CC3(CN(N4CCN(C5COC5)CC4)C3)C2)C(=O)N(S(=O)(=O)c2ccc(OC)cn2)C2C=CC(C#N)=CC21` (racemic): “in the range around 5.5 nM”; for `CCOc1ccc(OC)c(C2(N3CC4(CN(C5CCN(C6COC6)CC5)C4)C3)C(=O)N(S(=O)(=O)c3ccc(OC)cn3)C3C=CC(C#N)=CC32)c1` (racemic): “in the range around 5.5 nM”. Regarding `COc1ccc(S(=O)(=O)N2C(=O)C(c3cccnc3OC(C)(F)F)(N3CC4(CN(C5CCN(C)CC5)C4)C3)C3C=C(C#N)C=CC32)nc1` (racemic), the inhibition constant Ki result is “in the range around 5.5 nM”. The same measure for `CCOc1ncccc1C1(N2CC3(CN(N4CCN(C)CC4)C3)C2)C(=O)N(S(=O)(=O)c2ccc(OC)cn2)C2C=CC(C#N)=CC21` (racemic): “in the range around 5.5 nM”; for `CCOc1ccc(OC)c(C2(N3CC4(CN(C5CCN(C)CC5)C4)C3)C(=O)N(S(=O)(=O)c3ccc(OC)cn3)C3C=CC(C#N)=CC32)c1` (racemic; form 1): “in the range around 5.5 nM”; for `COc1ccc(S(=O)(=O)N2C(=O)C(c3cccnc3OC)(N3CC4(CN(C5CCN(C)CC5)C4)C3)C3C=C(C#N)C=CC32)nc1` (racemic; form 1): “in the range around 5.5 nM”. The entry for `CCOc1ccc(OC)c(C2(N3CC4(CN(C5CCN(C)CC5)C4)C3)C(=O)N(S(=O)(=O)c3ccc(OC)cn3)C3C=CC(C#N)=CC32)c1` (racemic; form 2) is “in the range around 5.5 nM”; for `COc1ccc(S(=O)(=O)N2C(=O)C(c3cccnc3OC)(N3CC4(CN(C5CCN(C)CC5)C4)C3)C3C=C(C#N)C=CC32)nc1` (racemic; form 2) it is “in the range around 5.5 nM”. Consider `COc1ccc(S(=O)(=O)N2C(=O)C(c3ccccc3OC)(N3CC4(CN(C5CCN(C6COC6)CC5)C4)C3)C3C=C(C#N)C=CC32)nc1` (single isomer, unassigned; (+)), for which the inhibition constant Ki entry is “in the range around 5.5 nM”.
